The test system of data set [1] is ELP(30TAG)-GFP. The data set can be described thus: Intact cell GFP fluorescence, ELP(30TAG)-GFP production. The class given is cell-based, E. coli. As to conditions: plasmid-based pAcF OTS in the GRO. Here is the method: (§1) Liquid cell cultures of strains harboring chromosomally integrated OTSs and GFP reporter plasmids were inoculated from frozen stocks and grown to confluence overnight. Cultures were then inoculated at 1:20 dilution in LBmin media supplemented with 30 μg/ml kanamycin. Strains were inoculated by addition of 1:20 confluent cell culture (grown overnight) and allowed to grow at 34° C. to an OD600 of 0.5-0.8 in a shaking plate incubator at 650 r.p.m (˜3 h). AARS expression was then induced by the addition of 0.2% arabinose, GFP expression was induced by the addition of 60 ng/ul anhydrotetracycline, and the appropriate nsAA was added to a concentration of 1 mM. Cells were incubated at 34° C. for an additional 16 h. Liquid cell cultures of strains harboring plasmid-based OTSs and GFP or ELP-GFP reporter plasmids were inoculated from frozen stocks and grown to confluence overnight. Cultures were then inoculated at 1:20 dilution in 2×YT media supplemented with 30 μg/ml kanamycin and 20 μg/ml chloramphenicol. […] Cells were allowed to grow at 34° C. to an OD600 of 0.5-0.8 in a shaking plate incubator at 650 r.p.m (˜3 h), reporter protein expression was then induced by the addition of 60 ng/ul anhydrotetracycline, and cells were incubated at 34° C. for an additional 16 h.
(§2) For 384 well plate-based assays, fluorescence and OD600 were directly measured following expression. For 96 well plate-based assays, cells were centrifuged at 4,000 g for 4 min. Supernatant medium was removed and cells were resuspended in PBS. This process was repeated twice with PBS. GFP fluorescence was measured on a Biotek spectrophotometric plate reader using excitation and emission wavelengths of 395 and 509 nm, respectively). Fluorescence signals were normalized by dividing the fluorescence counts by the OD600 reading. The nsAAs used in this study were purchased from Sigma-Aldrich (St. Louis, Mo.), Chemlmpex (Wood Dale, Ill.), and Bachem (Torrance, Calif.). Solutions of nsAAs (50 mM) were made in water or 50 mM NaOH; these stock solutions were diluted 50- or 100-fold (to 1 mM final concentration) into medium used for bacterial growth.

Data set [2] deals with ELP(30TAG)-GFP. The data set can be described thus: ELP expression and purification, yield of purified ELP(30TAG)-GFP. The class given is cell-based, E. coli. As to conditions: for yield of purified ELP(30TAG)-GFP compared to expression of WT protein: small batch cultures. Here is the method:
Before batch expression, starter cultures (2 mL) of 2×YT media supplemented with 30 μg/mL kanamayacin and 20 μg/mL chloramphenicol were inoculated with transformed cells from a fresh agar plate or from stocks stored at −80° C., and incubated overnight at 34° C. while shaking at 250 rpm. Expression cultures (250 ml flasks containing 50 ml of 2×YT media, antibiotics, 0.2% arabinose and 1 mM of the nsAA) were inoculated with 0.5 ml of the starter culture and incubated at 34° C. for 4 h and then reporter protein expression was induced with 60 μg/mL anhydrotetracyclin.
Cells were harvested 24 h after inoculation by centrifugation at 4,000 g for 15 min at 4° C. The cell pellet was resuspended by vortex in ˜1.5 mL PBS buffer and stored at −80° C. or immediately purified. For purification, resuspended pellets were lysed by ultrasonic disruption (9 cycles of 10 s sonication separated by 40 s intervals). Poly(ethyleneimine) (0.2 mL of 10% solution) was added to each lysed suspension before centrifugation at 15,000 g for 3 min to separate cell debris from the soluble cell lysate.
All ELP constructs were purified by a modified Inverse Transition Cycling (ITC) protocol consisting of multiple “hot” and “cold” spins using sodium citrate to trigger the phase transition. Before purification, the soluble cell lysate was incubated for 1-2 min at ˜65° C. to denature native E. coli proteins. For “hot” spins, the ELP phase transition was triggered by adding sodium citrate to the cell lysate or the product of a previous cycle of ITC at a final concentration of ˜0.5 M. The solutions were then centrifuged at 14,000 g for 3 min and the pellets were resuspended in PBS, followed by a 3-5 min “cold” spin performed without addition of sodium citrate to remove denatured contaminant. Additional rounds of ITC were carried out as needed until sufficient purification was achieved.
Protein concentration was calculated by measuring the OD280 of purified protein stocks according to the following extinction coefficients for ELP(30TAG)-GFP.

For data set [3], the system named is GFP(3TAG). It is filed as cell-based, E. coli. As to conditions: for GFP(3TAG) fluorescence compared to WT-protein: plasmid-based pAcF OTS in the GRO. Here is the method: as §1, §2
The subject of the next data set is ELP(10TAG)-GFP. The data set can be described thus: Intact cell GFP fluorescence, ELP(10TAG)-GFP production. As to conditions: plasmid-based pAcF OTS in the GRO. Set-up: species or system E. coli. The procedure: Liquid cell cultures of strains harboring chromosomally integrated OTSs and GFP reporter plasmids were inoculated from frozen stocks and grown to confluence overnight. Cultures were then inoculated at 1:20 dilution in LBmin media supplemented with 30 μg/ml kanamycin. Strains were inoculated by addition of 1:20 confluent cell culture (grown overnight) and allowed to grow at 34° C. to an OD600 of 0.5-0.8 in a shaking plate incubator at 650 r.p.m (˜3 h). AARS expression was then induced by the addition of 0.2% arabinose, GFP expression was induced by the addition of 60 ng/ul anhydrotetracycline, and the appropriate nsAA was added to a concentration of 1 mM. Cells were incubated at 34° C. for an additional 16 h. Liquid cell cultures of strains harboring plasmid-based OTSs and GFP or ELP-GFP reporter plasmids were inoculated from frozen stocks and grown to confluence overnight. Cultures were then inoculated at 1:20 dilution in 2×YT media supplemented with 30 μg/ml kanamycin and 20 μg/ml chloramphenicol. […]
For 384 well plate-based assays, fluorescence and OD600 were directly measured following expression. […] GFP fluorescence was measured on a Biotek spectrophotometric plate reader using excitation and emission wavelengths of 395 and 509 nm, respectively). Fluorescence signals were normalized by dividing the fluorescence counts by the OD600 reading. […]

Data set [4] is described as follows: ATP-PPi exchange assay (amino acid activation). It is filed as biochemical. As to conditions: nsAA pAzF. The procedure: A 25 μl ATP-PPi exchange reaction contained the following components: 100 mM HEPES-KOH (pH 7.5), 30 mM KCl, 10 mM MgCl2, 2 mM DTT, 2 mM KF, 2 mM NaPPi, 5 mM ATP, […], 2 μCi/μl of […] (PerkinElmer) and varied concentrations of amino acids (0.25, 0.5, 1.25, 2.5, 5, 10, and 20 mM, respectively). The reactions were incubated at 37° C. Time points were taken at 2 minutes, 5 minutes and 10 minutes by plotting 1 μl aliquots from the reaction immediately to the PEI-cellulose plates (Merck). For each reaction, 1 μl of blank reaction mixture containing no enzymes was set as background. The reaction mixtures were separated on the plates in 1 M urea and 1 M monopotassium phosphate. The plates were then scanned in a Molecular Dynamics Storm 860 phosphorimager (Amersham Biosciences). The ratio of ATP to PPi was determined to monitor reaction progress. The kinetic constants were derived from plotting initial velocity of a series of reactions that contained varied concentrations of amino acids. The data were analyzed by GraFit 5.0 (Erithacus Software).

Data set [5] relates to GFP(3TAG). The data set can be described thus: nsAA library screening, GFP(3TAG) fluorescence in 384 well plates. The class given is cell-based, E. coli. As to conditions: GFP(3TAG) production in the presence of pAcF, pAzF and 236 other nsAAs. The procedure:
as §1
as §2, with “growth. […]” for “growth.”

The test system of a further data set is tRNA. The data set can be described thus: Aminoacylation assay (tRNA charging). As to conditions: nsAA pAzF. It is filed as biochemical. The procedure: Template plasmid containing tRNA gene was purified with the plasmid maxi kit (Qiagen), and 100 μg of plasmid was digested with BstNI (New England Biolabs). The BstNI digested template DNA was purified by phenol chloroform extraction, followed by ethanol precipitation and resolved in double distilled water. A His-tagged T7 RNA polymerase was purified over column of Ni-NTA resin according to manufacturer's instructions (Qiagen). The transcription reaction [40 mM Tris (pH 8); 4 mM each of UTP, CTP, GTP, and ATP at pH 7.0; 22 mM MgCl2; 2 mM spermidine; 10 mM DTT; 6 μg pyrophosphatase (Roche Applied Science); 60 μg/mL BstNI digested DNA template, approximately 0.2 mg/ml T7 RNA polymerase] was performed in 10 ml reaction volumes for overnight at 37° C. The tRNA was purified on 12% denaturing polyacrylamide gel containing 8 M urea and TBE buffer (90 mM Tris, 90 mM boric acid, 2 mM EDTA). UV shadowing illuminates the pure tRNA band, which is excised and extracted three times with 1M sodium acetate pH 5.3 at 4° C. The tRNA extractions were then ethanol precipitated, dissolved in RNase-free distilled water, pooled, and finally desalted using a Biospin 30 column (BioRad). The ratio of aminoacylated tRNA to total tRNA was determined to monitor reaction progress.
The tRNA was refolded by heating to 100° C. for 5 min and slow cooling to room temperature. At 65° C., MgC12, was added to a final concentration of 10 mM to aid folding. A His-tagged CCA adding enzyme was purified over column of Ni-NTA resin according to manufacturer's instructions (Qiagen). 16 μM folded tRNA in 50 mM Tris (pH 8.0), 20 mM MgCl2, 5 mM DTT and 50 μM NaPPi was incubated at room temperature for 1 hour with approximately 0.2 mg/ml CCA-adding enzyme and 1.6 μCi/μl of [α-32P]-labeled ATP (PerkinElmer). The sample was phenol/chloroform extracted and then passed over a Bio-spin 30 column (Bio-Rad) to remove excess ATP.
A 20 μl aminoacylation reaction contained the following components: 50 mM HEPES-KOH (pH 7.2), 25 mM KCl, 10 mM MgCl2, 5 mM DTT, 10 mM ATP, 25 μg/ml pyrophosphatase (Roche Applied Science), 2 mM amino acids. All plateau tRNA aminoacylation levels were determined at 37° C. according to the reactions conditions described above with 500 nM enzyme, 5 μM unlabeled tRNA plus 100 nM 32P-labeled tRNA. Time points were taken at 5 minutes, 20 minutes and 60 minutes by removing 2 μl aliquots from the reaction and immediately quenching the reaction into an ice-cold 3 μl quench solution [0.66 μg/μl nuclease P1 (Sigma) in 100 mM sodium citrate (pH 5.0)]. For each reaction, 2 μl of blank reaction mixture containing no enzymes was added to the quench solution as the start time point. The nuclease P1 mixture was then incubated at room temperature for 30 min and 1 μl aliquots were spotted on PEI-cellulose plates (Merck) and developed in running buffer containing 5% acetic acid and 100 mM ammonium acetate. Radioactive spots for AMP and AA-AMP (representing free tRNA and aminoacyl-tRNA, respectively) were separated and then visualized and quantified by phosphor imaging by a Molecular Dynamics Storm 860 phosphorimager (Amersham Biosciences). The ratio of aminoacylated tRNA to total tRNA was determined to monitor reaction progress.

As to `[N-]=[N+]=Nc1ccc(C[C@H](N)C(=O)O)cc1` [pAzF, p-azido-L-phenylalanine, reference compound], in the data set on ELP(30TAG)-GFP [1], the “ELP(30TAG)-GFP fluorescence compared to WT-protein” value is 6%. Further, the “Yield of purified ELP(30TAG)-GFP” value in the data set with ELP(30TAG)-GFP [2] (nsAA pAzF, GRO) is given as “too low to allow for purification”. Also, the “GFP(3TAG) fluorescence compared to WT-protein” value with GFP(3TAG) [3] amounted to 75%. Moreover, the “ELP(10TAG)-GFP fluorescence compared to WT-protein” value with ELP(10TAG)-GFP was determined as 32%.

In the case of `CC(=O)c1ccc(C[C@H](N)C(=O)O)cc1` [pAcF, p-acetyl-L-phenylalanine, reference compound], in the data set with ELP(30TAG)-GFP [1], the “ELP(30TAG)-GFP fluorescence compared to WT-protein” value was determined as 25%. The results for the “yield of purified ELP(30TAG)-GFP compared to expression of WT protein” value with ELP(30TAG)-GFP [2] (GRO) and in the data set on ELP(30TAG)-GFP [2] (parent (non-recoded) strain) were 18% and 8%, respectively. Further, the “GFP(3TAG) fluorescence compared to WT-protein” value in the data set on GFP(3TAG) [3] stood at 110%. Moreover, the “ELP(10TAG)-GFP fluorescence compared to WT-protein” value in the data set with ELP(10TAG)-GFP is recorded as 87%.

B1: pAzFRS.2: pAcFRS variant E107T, F108Y, Q109M, SEQ ID NO: 13 (protein)
chain: MDEFEMIKRNTSEIISEEELREVLKKDEKSALIGFEPSGKIHLGHYLQIKKMIDLQNAGFDIIILLADLHAYLNQKGELDEIRKIGDYNKKVFEAMGLKAKYVYGSTYMLDKDYTLNVYRLALKTTLKRARRSMELIAREDENPKVAEVIYPIMQVNGCHYRGVDVAVGGMEQRKIHMLARELLPKKVVCIHNPVLTGLDGEGKMSSSKGNFIAVDDSPEEIRAKIKKAYCPAGVVEGNPIMEIAKYFLEYPLTIKRPEKFGGDLTVNSYEELESLFKNKELHPMRLKNAVAEELIKILEPIRKRL
In general, Km refers to the concentration of substrate that gives half-maximal velocity. On to B1, for which the figures for the Michaelis-Menten constant (Km) (in data set [4]; in the data set with tRNA) were 1250 ± 110 µM and 32 ± 11 µM, respectively. In addition, the kcat was 4.13 ± 0.86 ×10^−2 s^−1 in data set [4] and 0.73 ± 0.06 ×10^−3 s^−1 in the data set on tRNA. The Fold change in data set [4] (relative to progenitor pAcFRS) was 2.26; in the data set on tRNA (relative to progenitor pAcFRS) it was 3.67. For the same molecule, the “nsAA specificity (polyspecificity)” value in the data set with GFP(3TAG) [5] is “polyspecific for at least pAcF, pAzF, StyA, 4IF, 4BrF, 4ClF, 4MeF, 4Cf3F, MeY, 4NO2F, 4BuF, BuY, 2NaA, PheF”. The “higher GFP(3TAG) production compared with the progenitor enzyme” value in the data set on GFP(3TAG) [3] (chromosomally integrated AARS, pAzF) is ~12 fold.
